According to publication PMC9331678 (Molecules, 2022):

How the values were obtained:
[1] = 6 h benchtop (early preanalytical) stability in whole blood and in plasma; format: in vitro ADME, human
Method: Six independent plasma samples were processed. The reference solutions were 140 µL acetonitrile-water 4:1 (v/v) mixtures spiked as described above. The mixtures and the reference solutions were subsequently diluted with 90 µL water. Internal standard-corrected matrix factors were calculated as the peak area ratios of the analytes and the internal standards in prepared plasma versus those in a neat solution. In the stability studies, the recoveries of IBR and DIB were calculated as the ratio of the concentrations measured after incubation and those measured at the beginning of the study.
The preanalytical stability of IBR and DIB was evaluated by adding 20 µL methanol solutions containing 500 ng/mL IBR and DIB to two 1.0 mL aliquots of blood freshly drawn into phlebotomy tubes containing K3-EDTA. Three samples, 3 mL each, were taken from three healthy volunteers (manuscript authors G.B.K., I.V. and Z.K.). One of the fractions was centrifuged at 3000 rpm and 10 °C for 10 min immediately after spiking the analytes, and plasma was separated. Both spiked whole blood and the separated plasma were kept at ambient temperature for 6 h. […] Fifty microliters was drawn from the supernatant of the whole blood sample as well as from the plasma, and was processed as described in Section 2.2.

[2] = 24 h therapeutic monitoring and noncompartmental pharmacokinetics in chronic lymphocytic leukemia patients receiving IBR; conditions: plasma; for mean DIB/IBR concentration ratio: three patients; for concentration at 0.5 h: 0.5 h postdose; for concentration at 1 h: 1 h postdose; for concentration at 2 h: 2 h postdose; for concentration at 4 h: 4 h postdose; for concentration at 23 h: 23 h postdose
Method: In order to provide a proof of concept, IBR and DIB were assayed in the plasma samples of three patients treated with IBR. […] The criteria for inclusion were (1) age of ≥18 years, (2) treatment ongoing with IBR for more than 10 days, and (3) no concurrent administration of medications undergoing CYP3A4 metabolism. The subjects gave their written informed consent. Each participant took either two or three 140 mg Imbruvica capsules, as per the therapeutic provision, in the presence of the recruiting clinician.
Blood samples were centrifuged at 3000 rpm for 10 min in a Hettich Universal 320R centrifuge (Auro-Science, Budapest, Hungary) at 10 °C. Plasma was separated and frozen at −70 °C until analysis was done within 2 weeks.

[3] = Patient 1, 420 mg IBR per day, steady state
[4] = Patient 2, 420 mg IBR per day, steady state
[5] = Patient 3, 280 mg IBR per day, steady state
[6] = human, oral, 280 mg/day, Conc., subj=3 (280 mg IBR per day)
[7] = human, oral, 420 mg, Conc., subj=1 (420 mg IBR per day)

Structure (SMILES): Nc1ncnc2c1c(-c1ccc(Oc3ccccc3)cc1)nn2[C@@H]1CCCN(C(=O)C(O)CO)C1 (stereo partly drawn) [Dihydrodiol Ibrutinib, 1-[(3R)-3-[4-amino-3-(4-phenoxyphenyl)pyrazolo[3,4-d]pyrimidin-1-yl]piperidin-1-yl]-2,3-dihydroxypropan-1-one]
- recovery at 9.8 ng/mL ([1]; human, plasma (separated from spiked K3-EDTA whole blood), plasma, ambient temperature (25 °C), up to 6 h, all analyses): ≥ 85%
- stability ([1]; whole blood and plasma kept at ambient temperature for 6 h): acceptable for clinical use
- cases with recoveries lower than 85% (of fifteen analyses) ([1]; whole blood, ambient temperature (25 °C), up to 6 h): one
- AUC0–24 [2, 3]: 2347 nmol·L/h
- AUMC0–24 [2, 3]: 16,593 nmol × L
- AUC0–24 [2, 4]: 2528 nmol·L/h
- AUMC0–24 [2, 4]: 11,626 nmol × L
- AUC0–24 [2, 5]: 1800 nmol·L/h
- AUMC0–24 [2, 5]: 8172 nmol·L
- mean DIB/IBR concentration ratio ([2]; at 4 h postdose): 2.36 ± 1.69
- mean DIB/IBR concentration ratio ([2]; at the trough (23–24 h)): 3.34–3.44
- mean DIB/IBR concentration ratio ([2]; between 0.5–2 h postdose): 0.96–1.19
- AUC ([2]; human, oral, 280 mg, AUCALL AUC All, subj=3 (280 mg IBR per day), steady state): 1.8 µM·h
- AUC(0-inf) ([2]; human, oral, 280 mg, AUCIFO AUC Infinity Obs, subj=3 (280 mg IBR per day), steady state): 1.88 µM·h
- AUC(0-inf) ([2]; human, oral, 280 mg, AUCIFP AUC Infinity Pred, subj=3 (280 mg IBR per day), steady state): 1.88 µM·h
- AUC ([2]; human, oral, 280 mg, AUCLST AUC to Last Nonzero Conc, subj=3 (280 mg IBR per day), steady state): 1.8 µM·h
- Cmax ([2]; human, oral, 280 mg, CMAX Max Conc, subj=3 (280 mg IBR per day), steady state): 217 nM
- k el ([2]; human, oral, 280 mg, LAMZ Lambda z, subj=3 (280 mg IBR per day), steady state): 3.39e-05 s⁻¹
- half-life ([2]; human, oral, 280 mg, LAMZHL Half-Life Lambda z, subj=3 (280 mg IBR per day), steady state): 5.68 h
- MRT last ([2]; human, oral, 280 mg, MRT0–24, Patient 3, 280 mg IBR per day, steady state): 4.54 h
- MRT ([2]; human, oral, 280 mg, MRTEVIFO MRT Extravasc Infinity Obs, subj=3 (280 mg IBR per day), steady state): 5.75 h
- MRT ([2]; human, oral, 280 mg, MRTEVIFP MRT Extravasc Infinity Pred, subj=3 (280 mg IBR per day), steady state): 5.72 h
- MRT ([2]; human, oral, 280 mg, MRTEVLST MRT Extravasc to Last Nonzero Conc, subj=3 (280 mg IBR per day), steady state): 4.54 h
- Cmax ([2]; human, oral, 280 mg, cmax, Patient 3, 280 mg IBR per day, steady state): 217 nM
- k el ([2]; human, oral, 280 mg, ke, Patient 3, 280 mg IBR per day, steady state): 3.39e-05 s⁻¹
- half-life ([2]; human, oral, 280 mg, t1/2, Patient 3, 280 mg IBR per day, steady state): 5.68 h
- Tmax ([2]; human, oral, 280 mg, tmax, Patient 3, 280 mg IBR per day, steady state): 2 h
- concentration at 24 h ([2]; human, oral, 280 mg/day, CLST Last Nonzero Conc, subj=3 (280 mg IBR per day), 24 h): 10.1 nM
- concentration at 24 h ([2]; human, oral, 280 mg/day, CLSTP Last Nonzero Conc Pred, subj=3 (280 mg IBR per day), 24 h): 9.84 nM
- concentration at 0.5 h [2, 6]: 50.4 nM
- concentration at 1 h [2, 6]: 195 nM
- concentration at 2 h [2, 6]: 217 nM
- concentration at 4 h [2, 6]: 113 nM
- concentration at 23 h [2, 6]: 10.8 nM
- concentration at 24 h ([2]; human, oral, 280 mg/day, Conc., subj=3 (280 mg IBR per day), 24 h postdose): 10.1 nM
- AUC ([2]; human, oral, 420 mg, AUCALL AUC All, subj=1 (420 mg IBR per day), steady state): 2.35 µM·h
- AUC ([2]; human, oral, 420 mg, AUCALL AUC All, subj=2 (420 mg IBR per day), steady state): 2.53 µM·h
- AUC(0-inf) ([2]; human, oral, 420 mg, AUCIFO AUC Infinity Obs, subj=1 (420 mg IBR per day), steady state): 2.85 µM·h
- AUC(0-inf) ([2]; human, oral, 420 mg, AUCIFO AUC Infinity Obs, subj=2 (420 mg IBR per day), steady state): 2.63 µM·h
- AUC(0-inf) ([2]; human, oral, 420 mg, AUCIFP AUC Infinity Pred, subj=1 (420 mg IBR per day), steady state): 2.88 µM·h
- AUC(0-inf) ([2]; human, oral, 420 mg, AUCIFP AUC Infinity Pred, subj=2 (420 mg IBR per day), steady state): 2.63 µM·h
- AUC ([2]; human, oral, 420 mg, AUCLST AUC to Last Nonzero Conc, subj=1 (420 mg IBR per day), steady state): 2.35 µM·h
- AUC ([2]; human, oral, 420 mg, AUCLST AUC to Last Nonzero Conc, subj=2 (420 mg IBR per day), steady state): 2.53 µM·h
- concentration at 24 h ([2]; human, oral, 420 mg, CLST Last Nonzero Conc, subj=1 (420 mg IBR per day), 24 h): 34.6 nM
- concentration at 24 h ([2]; human, oral, 420 mg, CLST Last Nonzero Conc, subj=2 (420 mg IBR per day), 24 h): 13.2 nM
- concentration at 24 h ([2]; human, oral, 420 mg, CLSTP Last Nonzero Conc Pred, subj=1 (420 mg IBR per day), 24 h): 36.5 nM
- concentration at 24 h ([2]; human, oral, 420 mg, CLSTP Last Nonzero Conc Pred, subj=2 (420 mg IBR per day), 24 h): 13 nM
- Cmax ([2]; human, oral, 420 mg, CMAX Max Conc, subj=1 (420 mg IBR per day), steady state): 185 nM
- Cmax ([2]; human, oral, 420 mg, CMAX Max Conc, subj=2 (420 mg IBR per day), steady state): 254 nM
- concentration at 0.5 h [2, 7]: 53.4 nM
- concentration at 1 h [2, 7]: 139 nM
- concentration at 2 h [2, 7]: 185 nM
- concentration at 4 h [2, 7]: 143 nM
- concentration at 23 h [2, 7]: 41.3 nM
